Reference: patent publication US4354039A, “Chlorocitric acids” (Hoffmann-La Roche Inc., priority 1981, dated 1982)

Experiments:
[1] = Total body fat in meal-fed rats, oral, 17 day study (Example 22); type: in vivo, Charles River female rats; conditions: Chow, 17 days
Description: Two month old Charles River female rats (Charles River Breeding Laboratories, Wilmington, Mass.) were individually housed in wire-bottomedcages in a temperature-regulated (22° C.) light-controlled room (12 hr light, 6 a.m. to 6 p.m. and 12 hr dark, 6 p.m. to 6 a.m.). […] On the 8th day, the animals were administered water or (-)-threo-chlorocitric acid at the indicated concentration by oral intubation 30 min before the 3 hr meal. Treatment was continued for 17 days. Food cups were weighed immediately after the meal. After 17 days of treatment, rats were killed by decapitation and blood was removed. […] C. Sullivan, et al, Am. J. Clinical Nutrition, 30 767 (1977). […] Total carcass and lipid data are expressed in grams and percentages of carcass weight.

[2] = Effect on stomach emptying, [14C] glucose load (Example 25); type: in vivo, Rats; conditions: 0.33 mmoles/kg oral, 60 min after [14C] glucose load
Description: Rats were trained to consume a 3 hr 70% glucose meal from 8 a.m. to 11 a.m. daily. On the experimental day, compounds were administered orally by intubation 30 min before a [^14 C] glucose load was given also by intubation. […] Sixty minutes later the rats were killed by decapitation; blood and stomachs were collected on ice.
Data are expressed as follows: dpm×10^3 per ml of serum and dpm×10^3 per stomach.

[3] = Body composition of meal-fed rats, 16 day study (Example 20); type: in vivo, Charles River female rats; conditions: in words
Description: Two month old Charles River female rats (Charles River Breeding Laboratories, Wilmington, Mass.) were individually housed in wire-bottomedcages in a temperature-regulated (22° C.) light-controlled room (12 hr light, 6 a.m. to 6 p.m. and 12 hr dark, 6 p.m. to 6 a.m.). […] (1) control, (2) (-)-threo-chlorocitric acid (1.0 mmoles/kg, 227 mg/kg) administered by oral intubation 30 min before the 3 hr meal, and (3) (-)-threo-chlorocitric acid (1.1 mmoles/kg, 250 mg/kg as a dietary admixture for the 3 hr meal. Treatment was continued for 16 days. After 16 days of treatment, rats were killed by decapitation and blood was removed. […] C. Sullivan, et al, Am. J. Clinical Nutrition, 30 767 (1977). […] Total carcass lipid data are expressed in grams and percentages of carcass weight. An aliquot of saponified carcass extract was neutralized and total carcass nitrogen was determined using the Kjeldahl procedure described in "Hawks" Physiological Chemistry," B. L. Oser, ed., McGraw Book Co., New York, N.Y., 1965, page 1214. Carcass protein data are expressed in grams and percentages of carcass weight.

[4] = Anorectic activity, acute, pyramiding dose and chronic studies (summary statements); type: in vivo, mammals; conditions: in words
[5] = Effect of stereoisomers on food consumption of meal-fed rats (Example 14); type: in vivo, Charles River female rats
Description: Animals were fasted 48 hr, then meal-fed the 70% glucose diet described by A. C. […] Following 5 to 12 days alimentation on the meal-feeding regimen, rats were dosed with the appropriate compounds orally by intubation 1/2 hr before the 3 hr meal. Food cups were weighed immediately after the meal. The control group consisted of 5 to 10 rats, while the experimental group consisted of 4 to 6 rats.

Compound: O=C(O)C[C@@](O)(C(=O)O)[C@@H](Cl)C(=O)O [(-)-threo-Chlorocitric acid]
- Carcass Lipid % carcass, % of control ([1]; 0.25 mmoles (57 mg)/kg oral): 99 % of control
- Carcass Lipid total, % of control ([1]; 0.25 mmoles (57 mg)/kg oral): 101 % of control
- Carcass Lipid, % carcass ([1]; 0.25 mmoles (57 mg)/kg oral): 4.56 ± 0.42 % carcass
- Carcass Lipid, total ([1]; 0.25 mmoles (57 mg)/kg oral): 9.64 ± 0.80 g
- Carcass Weight ([1]; 0.25 mmoles (57 mg)/kg oral): 213 ± 4 g
- Carcass Lipid % carcass, % of control ([1]; 0.50 mmoles (114 mg)/kg oral): 58 % of control
- Carcass Lipid total, % of control ([1]; 0.50 mmoles (114 mg)/kg oral): 50 % of control
- Carcass Lipid, % carcass ([1]; 0.50 mmoles (114 mg)/kg oral): 2.70 ± 0.17 % carcass
- Carcass Lipid, total ([1]; 0.50 mmoles (114 mg)/kg oral): 4.80 ± 0.48 g
- Carcass Weight ([1]; 0.50 mmoles (114 mg)/kg oral): 173 ± 4 g
- Carcass Lipid % carcass, % of control ([1]; 1.00 mmoles (227 mg)/kg oral): 52 % of control
- Carcass Lipid total, % of control ([1]; 1.00 mmoles (227 mg)/kg oral): 41 % of control
- Carcass Lipid, % carcass ([1]; 1.00 mmoles (227 mg)/kg oral): 2.40 ± 0.22 % carcass
- Carcass Lipid, total ([1]; 1.00 mmoles (227 mg)/kg oral): 3.92 ± 0.37 g
- Carcass Weight ([1]; 1.00 mmoles (227 mg)/kg oral): 163 ± 7 g
- Serum, % of control [2]: 33 % of control
- Stomach Contents, % of control [2]: 312 % of control
- weight loss, carcass analysis [3]: weight loss was due to reduction in body lipids
- activity in the acute meal-fed assay utilizing three diets and in pyramiding dose studies, reduction in food consumption [4]: significantly more active
- appetite suppression and reduction of body weight gain ([4]; short- and long-term chronic studies): suppressed appetite and reduced body weight gain in mammals more efficaciously than hydroxycitric acid or citric acid
- Food Consumption, % of control ([5]; 0.66 mmoles/kg oral): 59 % of control
- Food Consumption, % of control ([5]; 2.63 mmoles/kg oral): 16 % of control
